Active and inactive are the calls of the source. The calls are words filed in the database; no cut-off is given here.

In general, inhibition refers to the change of the read-out against control, counted positive when it falls.

Holding throughout (type): functional, cell-based
Holding throughout (settings): CV-1

For experiment [1], the target named is T1, Progesterone receptor (Homo sapiens) (UniProt P06401).
T1 sequence (whole entry): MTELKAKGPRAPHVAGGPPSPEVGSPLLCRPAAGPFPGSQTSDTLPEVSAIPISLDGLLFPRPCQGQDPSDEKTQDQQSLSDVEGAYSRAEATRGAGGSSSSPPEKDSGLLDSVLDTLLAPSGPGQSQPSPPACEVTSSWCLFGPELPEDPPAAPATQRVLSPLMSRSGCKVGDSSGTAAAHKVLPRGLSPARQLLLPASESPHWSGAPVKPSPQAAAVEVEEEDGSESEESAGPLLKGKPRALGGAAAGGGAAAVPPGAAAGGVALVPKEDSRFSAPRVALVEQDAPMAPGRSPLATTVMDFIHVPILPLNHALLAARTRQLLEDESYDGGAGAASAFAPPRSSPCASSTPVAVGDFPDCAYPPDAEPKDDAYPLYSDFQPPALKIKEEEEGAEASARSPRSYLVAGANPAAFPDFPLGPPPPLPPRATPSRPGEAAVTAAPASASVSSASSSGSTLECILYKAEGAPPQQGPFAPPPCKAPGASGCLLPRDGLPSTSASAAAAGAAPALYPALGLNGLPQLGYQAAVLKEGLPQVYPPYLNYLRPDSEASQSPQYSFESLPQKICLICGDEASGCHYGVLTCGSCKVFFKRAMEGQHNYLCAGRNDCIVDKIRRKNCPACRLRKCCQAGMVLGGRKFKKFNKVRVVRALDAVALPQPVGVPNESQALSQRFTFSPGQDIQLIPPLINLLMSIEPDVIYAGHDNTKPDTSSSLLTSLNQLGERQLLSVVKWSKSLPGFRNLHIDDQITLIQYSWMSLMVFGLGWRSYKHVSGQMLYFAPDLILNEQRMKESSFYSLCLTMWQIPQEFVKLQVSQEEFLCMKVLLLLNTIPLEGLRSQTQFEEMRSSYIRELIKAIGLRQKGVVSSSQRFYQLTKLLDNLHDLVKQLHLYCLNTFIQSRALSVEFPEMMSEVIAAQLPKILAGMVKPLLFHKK
The experiment is described as follows: Agonist activity at gal-PR expressed in african green monkey CV1 cells co-expressing MH100 up to 10 uM by luciferase reporter gene assay relative to control. For orientation: Reporter assays use an easily measured gene product as a stand-in for the process of interest.

Experiment [2] concerns the target T1, Progesterone receptor (Homo sapiens). The experiment is described as follows: Antagonist activity at gal-PR expressed in african green monkey CV1 cells co-expressing MH100 at 10 uM by luciferase reporter gene assay.
Experiment [3] has as its target Steroid hormone receptor ERR1 (Homo sapiens) (UniProt P11474). As to the kind of experiment: Antagonist activity at ERRalpha expressed in african green monkey CV1 cells by luciferase reporter gene assay.
Experiment [4] has as its target T2, Peroxisome proliferator-activated receptor alpha (Homo sapiens) (UniProt Q07869).
T2 sequence (whole entry): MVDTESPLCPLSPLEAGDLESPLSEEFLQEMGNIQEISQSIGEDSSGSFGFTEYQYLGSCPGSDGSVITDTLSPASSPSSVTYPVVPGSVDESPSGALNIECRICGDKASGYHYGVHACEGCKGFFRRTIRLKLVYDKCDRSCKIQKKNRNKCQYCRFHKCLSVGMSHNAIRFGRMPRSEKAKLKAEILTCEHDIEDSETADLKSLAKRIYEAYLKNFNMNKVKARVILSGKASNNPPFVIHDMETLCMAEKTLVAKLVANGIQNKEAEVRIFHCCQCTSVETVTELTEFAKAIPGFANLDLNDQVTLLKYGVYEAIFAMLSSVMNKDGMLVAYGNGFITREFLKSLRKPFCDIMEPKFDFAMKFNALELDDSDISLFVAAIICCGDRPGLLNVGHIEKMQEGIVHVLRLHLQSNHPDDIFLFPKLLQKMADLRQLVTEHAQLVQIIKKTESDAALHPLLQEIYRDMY
As to the kind of experiment: Agonist activity at PPARalpha expressed in african green monkey CV1 cells co-expressing MH100 up to 10 uM by luciferase reporter gene assay relative to control.

Experiment [5] deals with T3, Bile acid receptor (Homo sapiens) (UniProt Q96RI1).
T3 sequence (whole entry): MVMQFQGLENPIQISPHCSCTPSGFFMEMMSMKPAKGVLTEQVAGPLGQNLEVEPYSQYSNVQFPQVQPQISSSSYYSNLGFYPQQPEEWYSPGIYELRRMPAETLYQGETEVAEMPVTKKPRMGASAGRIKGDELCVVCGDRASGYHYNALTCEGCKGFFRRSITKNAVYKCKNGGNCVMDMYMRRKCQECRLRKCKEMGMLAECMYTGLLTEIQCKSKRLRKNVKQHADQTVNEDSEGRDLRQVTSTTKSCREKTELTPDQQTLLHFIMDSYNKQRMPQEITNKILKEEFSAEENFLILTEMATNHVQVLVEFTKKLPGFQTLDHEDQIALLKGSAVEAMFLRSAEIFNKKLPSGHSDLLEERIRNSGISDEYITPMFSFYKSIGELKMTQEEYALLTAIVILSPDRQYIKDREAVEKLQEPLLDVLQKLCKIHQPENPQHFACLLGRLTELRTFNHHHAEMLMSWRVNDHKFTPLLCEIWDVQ
The experiment is described as follows: Agonist activity at human FXR expressed in african green monkey CV1 cells co-expressing ECRE with RXR co-factor up to 10 uM by luciferase reporter gene assay relative to CDCA.

Steroid hormone receptor ERR1 (Homo sapiens), sequence (P11474 whole entry): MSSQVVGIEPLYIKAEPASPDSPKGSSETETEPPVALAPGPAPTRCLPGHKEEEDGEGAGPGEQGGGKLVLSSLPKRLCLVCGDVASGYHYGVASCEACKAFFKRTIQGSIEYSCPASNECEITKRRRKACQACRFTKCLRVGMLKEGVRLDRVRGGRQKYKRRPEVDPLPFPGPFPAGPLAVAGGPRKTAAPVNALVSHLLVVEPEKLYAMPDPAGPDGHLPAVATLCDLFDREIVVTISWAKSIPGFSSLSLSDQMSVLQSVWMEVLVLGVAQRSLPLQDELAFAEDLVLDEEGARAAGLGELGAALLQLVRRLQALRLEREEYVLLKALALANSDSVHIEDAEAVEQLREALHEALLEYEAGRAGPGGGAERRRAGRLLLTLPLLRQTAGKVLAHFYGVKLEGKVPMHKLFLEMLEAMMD

As to `CC(C)OC(=O)C1=CN(C(=O)c2ccc(F)c(F)c2)CC(C)(C)c2c1[nH]c1ccccc21` [TUROFEXORATE ISOPROPYL], the result in experiment [1], in experiment [3] and in experiment [4] was inactive. The same compound returned an inhibition in experiment [2] of 14%. Besides, the Efficacy in experiment [5] is 149%.

The values are drawn from ChEMBL document CHEMBL1140941 (J Med Chem, 2009).
